Data on 20 molecules can be found in patent publication US6583180B2, “Glucocorticoid receptor modulators” (Abbott Laboratories, priority 2001, dated 2003).

Broadly, the inhibition is how much of the control response was suppressed.

Molecules are shown by their SMILES.

The experiment addresses T1, Human glucocorticoid receptors (Homo sapiens, UniProt P04150).
T1 construct: made in house; host or cells: Sf9 insect cells, recombinant baculovirus (BAC-TO-BAC)
T1 sequence (P04150 1-777): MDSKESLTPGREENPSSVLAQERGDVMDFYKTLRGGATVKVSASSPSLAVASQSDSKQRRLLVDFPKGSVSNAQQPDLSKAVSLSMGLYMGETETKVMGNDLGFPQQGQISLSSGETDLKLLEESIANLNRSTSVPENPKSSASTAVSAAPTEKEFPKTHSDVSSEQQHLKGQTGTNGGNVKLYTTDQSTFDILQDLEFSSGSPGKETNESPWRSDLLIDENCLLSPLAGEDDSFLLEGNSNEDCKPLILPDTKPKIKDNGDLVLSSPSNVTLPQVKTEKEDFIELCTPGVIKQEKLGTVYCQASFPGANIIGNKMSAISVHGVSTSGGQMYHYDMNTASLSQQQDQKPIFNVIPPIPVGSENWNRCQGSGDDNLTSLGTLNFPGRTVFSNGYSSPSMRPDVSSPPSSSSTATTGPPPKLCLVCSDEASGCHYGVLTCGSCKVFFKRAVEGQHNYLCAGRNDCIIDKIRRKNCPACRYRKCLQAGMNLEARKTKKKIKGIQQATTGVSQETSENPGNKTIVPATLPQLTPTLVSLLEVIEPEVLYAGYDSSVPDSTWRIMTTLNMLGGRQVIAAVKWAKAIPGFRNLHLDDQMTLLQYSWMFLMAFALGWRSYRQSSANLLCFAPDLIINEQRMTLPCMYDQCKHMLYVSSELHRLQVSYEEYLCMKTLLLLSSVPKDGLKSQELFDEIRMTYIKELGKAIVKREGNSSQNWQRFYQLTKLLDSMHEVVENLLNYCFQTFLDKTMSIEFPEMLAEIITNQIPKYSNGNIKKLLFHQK
The experiment can be described thus: Radioligand filter binding assay, displacement of 3[H]-dexamethasone from hGR. The note with it: read-out: GR Binding (% Inhibition at 1.7 μM). The method in brief:
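Recombinant hGR extract from baculovirus-infected Sf9 cells (final ~1 nM receptor) incubated with ³H-dexamethasone and test compound dilutions in duplicate, EDTA/phosphate pH 8 buffer with MTG, overnight (15-20 h) at +4° C. Bound label collected on PEI-treated GF/B filters and scintillation-counted; IC50 from four-parameter fit of corrected cpm.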
Turning to `Cc1c(NS(C)(=O)=O)cccc1N(Cc1ccccc1)Cc1ccc(Oc2ccc(OCCCC(=O)N[C@@H](CCC(N)=O)C(=O)O)cc2)cc1` [Example 260, N˜2˜-[4-(4-{4-[(benzyl{2-methyl-3-[(methylsulfonyl)amino]phenyl}amino)methyl]phenoxy}phenoxy)butanoyl]-L-glutamine], the inhibition at 1.7 µM turned out to be 91.3%.
With `Cc1c(NS(C)(=O)=O)cccc1N(Cc1ccccc1)Cc1ccc(Oc2ccc(OCCCCC(=O)NCC(=O)O)cc2)cc1` [Example 261, N-[5-(4-{4-[(benzyl{2-methyl-3-[(methylsulfonyl)amino]phenyl}amino)methyl]phenoxy}phenoxy)pentanoyl]glycine], the inhibition at 1.7 µM was found to be 91.5%.
Turning to `Cc1c(NS(C)(=O)=O)cccc1N(Cc1ccccc1)Cc1ccc(Oc2ccc(OCCCCC(=O)NCCC(=O)O)cc2)cc1` [Example 262, N-[5-(4-{4-[(benzyl{2-methyl-3-[(methylsulfonyl)amino]phenyl}amino)methyl]phenoxy}phenoxy)pentanoyl]-beta-alanine], the inhibition at 1.7 µM came to 92.2%.
For the molecule `Cc1c(NS(C)(=O)=O)cccc1N(Cc1ccccc1)Cc1ccc(Oc2ccc(OCCCCC(=O)NCCCC(=O)O)cc2)cc1` [Example 263, 4-{[5-(4-{4-[(benzyl{2-methyl-3-[(methylsulfonyl)amino]phenyl}amino)methyl]phenoxy}phenoxy)pentanoyl]amino}butanoic acid], the inhibition at 1.7 µM was 91.7%.
As for `Cc1c(NS(C)(=O)=O)cccc1N(Cc1ccccc1)Cc1ccc(Oc2ccc(OCCCCC(=O)N(C)CC(=O)O)cc2)cc1` [Example 264, N-[5-(4-{4-[(benzyl{2-methyl-3-[(methylsulfonyl)amino]phenyl}amino)methyl]phenoxy}phenoxy)pentanoyl]-N-methylglycine], the inhibition at 1.7 µM was 89.5%.
The same measure for `Cc1c(NS(C)(=O)=O)cccc1N(Cc1ccccc1)Cc1ccc(Oc2ccc(OCCCCC(=O)N[C@@H](CCC(=O)O)C(=O)O)cc2)cc1` [Example 265, N-[5-(4-{4-[(benzyl{2-methyl-3-[(methylsulfonyl)amino]phenyl}amino)methyl]phenoxy}phenoxy)pentanoyl]-L-glutamic acid]: 90%.
As to `Cc1c(NS(C)(=O)=O)cccc1N(Cc1ccccc1)Cc1ccc(Oc2ccc(OCCCCC(=O)N[C@H](C(=O)O)C(C)C)cc2)cc1` [Example 266, N-[5-(4-{4-[(benzyl{2-methyl-3-[(methylsulfonyl)amino]phenyl}amino)methyl]phenoxy}phenoxy)pentanoyl]-L-valine], the inhibition at 1.7 µM was 90.7%.
As for `Cc1c(NS(C)(=O)=O)cccc1N(Cc1ccccc1)Cc1ccc(Oc2ccc(OCCCCC(=O)N3CCC[C@H]3C(=O)O)cc2)cc1` [Example 267, 1-[5-(4-{4-[(benzyl{2-methyl-3-[(methylsulfonyl)amino]phenyl}amino)methyl]phenoxy}phenoxy)pentanoyl]-L-proline], the inhibition at 1.7 µM is 92.2%.
The same measure for `Cc1c(NS(C)(=O)=O)cccc1N(Cc1ccccc1)Cc1ccc(Oc2ccc(OCCCCC(=O)NC3CCOC3=O)cc2)cc1` (centres unmarked) [Example 268, 5-(4-{4-[(benzyl{2-methyl-3-[(methylsulfonyl)amino]phenyl}amino)methyl]phenoxy}phenoxy)-N-(2-oxotetrahydrofuran-3-yl)pentanamide]: 90.8%.
The same measure for `Cc1c(NS(C)(=O)=O)cccc1N(Cc1ccccc1)Cc1ccc(Oc2ccc(OCCCCC(=O)N[C@@H](CO)C(=O)O)cc2)cc1` [Example 269, N-[5-(4-{4-[(benzyl{2-methyl-3-[(methylsulfonyl)amino]phenyl}amino)methyl]phenoxy}phenoxy)pentanoyl]-L-serine]: 90.7%.
The same measure for `CC[C@H](C)[C@H](NC(=O)CCCCOc1ccc(Oc2ccc(CN(Cc3ccccc3)c3cccc(NS(C)(=O)=O)c3C)cc2)cc1)C(=O)O` [Example 270, N-[5-(4-{4-[(benzyl{2-methyl-3-[(methylsulfonyl)amino]phenyl}amino)methyl]phenoxy}phenoxy)pentanoyl]-L-isoleucine]: 91.1%.
In the case of `Cc1c(NS(C)(=O)=O)cccc1N(Cc1ccccc1)Cc1ccc(Oc2ccc(OCC(=O)NCCCC(=O)O)cc2)cc1` [Example 271, 4-{[(4-{4-[(benzyl{2-methyl-3-[(methylsulfonyl)amino]phenyl}amino)methyl]phenoxy}phenoxy)acetyl]amino}butanoic acid], the inhibition at 1.7 µM was determined as 91%.
For the molecule `Cc1c(NS(C)(=O)=O)cccc1N(Cc1ccccc1)Cc1ccc(Oc2ccc(OCC(=O)N(C)CC(=O)O)cc2)cc1` [Example 272, N-[(4-{4-[(benzyl{2-methyl-3-[(methylsulfonyl)amino]phenyl}amino)methyl]phenoxy}phenoxy)acetyl]-N-methylglycine], the inhibition at 1.7 µM is 90.2%.
For the molecule `Cc1c(NS(C)(=O)=O)cccc1N(Cc1ccccc1)Cc1ccc(Oc2ccc(OCC(=O)N[C@H](C(=O)O)C(C)C)cc2)cc1` [Example 273, N-[(4-{4-[(benzyl{2-methyl-3-[(methylsulfonyl)amino]phenyl}amino)methyl]phenoxy}phenoxy)acetyl]-L-valine], the inhibition at 1.7 µM was found to be 91.2%.
As for `Cc1c(NS(C)(=O)=O)cccc1N(Cc1ccccc1)Cc1ccc(Oc2ccc(OCC(=O)NC3CCOC3=O)cc2)cc1` (centres unmarked) [Example 274, 2-(4-{4-[(benzyl{2-methyl-3-[(methylsulfonyl)amino]phenyl}amino)methyl]phenoxy}phenoxy)-N-(2-oxotetrahydrofuran-3-yl)acetamide], the inhibition at 1.7 µM worked out at 89.9%.
Turning to `Cc1c(NS(C)(=O)=O)cccc1N(Cc1ccccc1)Cc1ccc(Oc2ccc(OCC(=O)N[C@@H](CO)C(=O)O)cc2)cc1` [Example 275, N-[(4-{4-[(benzyl{2-methyl-3-[(methylsulfonyl)amino]phenyl}amino)methyl]phenoxy}phenoxy)acetyl]-L-serine], the inhibition at 1.7 µM is 90.5%.
For the molecule `Cc1c(NS(C)(=O)=O)cccc1N(Cc1ccccc1)Cc1ccc(Oc2ccc(OCC(=O)N[C@@H](CC(N)=O)C(=O)O)cc2)cc1` [Example 276, N˜2˜-[(4-{4-[(benzyl{2-methyl-3-[(methylsulfonyl)amino]phenyl}amino)methyl]phenoxy}phenoxy)acetyl]-L-asparagine], the inhibition at 1.7 µM is 89.2%.
For the molecule `Cc1c(NS(C)(=O)=O)cccc1N(Cc1ccccc1)Cc1ccc(Oc2ccc(OCC(=O)NN)cc2)cc1` [Example 277, N-[3-(benzyl{4-[4-(2-hydrazino-2-oxoethoxy)phenoxy]benzyl}amino)-2-methylphenyl]methanesulfonamide], the inhibition at 1.7 µM turned out to be 90.6%.
Regarding `Cc1c(NS(C)(=O)=O)cccc1N(Cc1ccccc1)Cc1ccc(Oc2cccc(OC[C@@H]3CCC(=O)N3)c2)cc1` [Example 278, N-(3-{benzyl[4-(3-{[(2S)-5-oxopyrrolidin-2-yl]methoxy}phenoxy)benzyl]amino}-2-methylphenyl)methanesulfonamide], the inhibition at 1.7 µM was 90.1%.
As for `Cc1c(NS(C)(=O)=O)cccc1N(Cc1ccccc1)Cc1ccc(Oc2cccc(OCCCC(=O)N3CCCC(C(=O)O)C3)c2)cc1` (centres unmarked) [Example 279, 1-[4-(3-{4-[(benzyl{2-methyl-3-[(methylsulfonyl)amino]phenyl}amino)methyl]phenoxy}phenoxy)butanoyl]piperidine-3-carboxylic acid], the inhibition at 1.7 µM amounted to 91.7%.
